Source: patent publication US9200017B2, “Multimodal imaging of fibrin” (The General Hospital Corporation, priority 2009, dated 2015)

Target: T1, Thrombus (Rattus norvegicus, UniProt P02680+P06399+P14480)
T1 construct: thrombin cleaves fibrinopeptides on fibrinogen resulting in an end-to-end polymerization to give the polymer fibrin; A day old autologous blood clot was injected into the right internal carotid artery; from tissue; host or cells: autologous blood clot in the right internal carotid artery of Wistar rats
T1 sequence (P06399 37-550 isoform P06399-2 limits assumed): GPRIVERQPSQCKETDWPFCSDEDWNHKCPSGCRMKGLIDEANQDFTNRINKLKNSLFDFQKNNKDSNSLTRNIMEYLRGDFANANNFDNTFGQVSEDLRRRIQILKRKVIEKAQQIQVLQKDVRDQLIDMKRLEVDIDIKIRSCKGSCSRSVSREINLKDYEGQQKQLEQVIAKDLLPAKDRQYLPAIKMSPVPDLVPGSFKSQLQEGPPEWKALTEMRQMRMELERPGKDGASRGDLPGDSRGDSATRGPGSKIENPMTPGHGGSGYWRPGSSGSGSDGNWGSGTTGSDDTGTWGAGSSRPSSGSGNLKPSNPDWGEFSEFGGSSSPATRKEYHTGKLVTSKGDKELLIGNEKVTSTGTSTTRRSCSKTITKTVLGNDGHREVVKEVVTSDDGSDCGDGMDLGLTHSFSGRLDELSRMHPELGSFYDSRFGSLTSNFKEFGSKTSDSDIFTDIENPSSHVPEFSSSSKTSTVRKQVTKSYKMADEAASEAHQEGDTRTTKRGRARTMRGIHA
T1 sequence (P14480 33-479 limits assumed): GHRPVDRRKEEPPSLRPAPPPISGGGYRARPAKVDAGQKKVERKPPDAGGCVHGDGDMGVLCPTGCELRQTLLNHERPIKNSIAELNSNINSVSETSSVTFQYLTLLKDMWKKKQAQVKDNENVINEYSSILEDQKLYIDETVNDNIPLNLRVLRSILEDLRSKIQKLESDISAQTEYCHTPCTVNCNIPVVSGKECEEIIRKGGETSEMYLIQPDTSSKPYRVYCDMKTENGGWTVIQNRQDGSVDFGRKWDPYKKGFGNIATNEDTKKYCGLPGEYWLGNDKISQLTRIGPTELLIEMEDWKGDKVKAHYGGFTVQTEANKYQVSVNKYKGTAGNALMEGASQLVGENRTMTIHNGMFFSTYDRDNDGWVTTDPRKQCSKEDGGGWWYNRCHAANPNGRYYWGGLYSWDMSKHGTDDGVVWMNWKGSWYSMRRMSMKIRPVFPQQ
T1 sequence (P02680 26-437 isoform P02680-2 limits assumed): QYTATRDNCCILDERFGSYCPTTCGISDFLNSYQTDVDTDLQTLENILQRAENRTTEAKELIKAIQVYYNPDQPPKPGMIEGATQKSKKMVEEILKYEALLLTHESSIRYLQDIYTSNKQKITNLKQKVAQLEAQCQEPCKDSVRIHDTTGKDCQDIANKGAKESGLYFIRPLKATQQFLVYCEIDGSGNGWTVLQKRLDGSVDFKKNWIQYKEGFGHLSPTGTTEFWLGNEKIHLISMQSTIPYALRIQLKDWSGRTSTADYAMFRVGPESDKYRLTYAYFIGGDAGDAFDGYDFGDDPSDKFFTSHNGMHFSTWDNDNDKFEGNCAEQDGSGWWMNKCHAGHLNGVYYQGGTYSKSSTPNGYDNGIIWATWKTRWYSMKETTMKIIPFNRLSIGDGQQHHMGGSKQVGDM
Test: MR-PET imaging of occlusive thrombus in right internal carotid artery of rats
Assay type: in vivo
Details: for PET time-activity curve in thrombus: over 90 min, contralateral vessel signal decays with time; for Thrombus visibility on black-blood T1-weighted MR post injection: six animals imaged
Protocol: All animal studies were approved by the Subcommittee on Research Animal Care at Massachusetts General Hospital. The occlusive thrombus model was described previously (Zhang R L, Chopp M, Zhang Z G, Jiang Q, and Ewing J R., Brain Res. 1997 766(1-2):83-92). Briefly, male Wistar rats (350-400 g, n=8; Charles River Laboratories, Wilmington, Mass.) were anaesthetized with isoflurane (1-2% in 70% N2O and 30% O2) and body temperature was kept at 37.5° C. A day old autologous blood clot was injected into the right internal carotid artery (ICA) at the level of the middle cerebral artery (MCA). The femoral vein was cannulated for intravenous delivery of the contrast agent. Simultaneous PET and MR were acquired on a clinical 3T MRI-BrainPET scanner using a home-built receive surface coil and a CP transmit coil. After baseline MR scans were acquired, the dual MR-PET probe was injected at a dose of 11.5 μmol/kg (46 μmol Gd/kg, total activity=19.6±5.9 MBq). The animals were sacrificed 2 h post-injection. In total, six animals underwent imaging while in two additional animals only biodistribution data was collected.
The list-mode emission data from PET were rebinned in the sinogram space for fast reconstruction. The uncorrected PET volume was first reconstructed and binary segmented based on an empirically determined threshold in soft tissue and air. A uniform linear attenuation coefficient (0.096 cm^−1, corresponding to water at 511 keV) was assigned to all soft tissue voxels and the resulting attenuation map (combined with the coil attenuation map) was forward projected to derive the attenuation correction factors in sinogram space. A model-based approach was used to derive the scatter sinogram. The normalization was calculated from a 64 hr scan of a plane-source rotated in the FOV. The images were reconstructed with the ordinary Poisson ordered subsets expectation maximization (OP-OSEM) algorithm using 16 subsets and 6 iterations. The reconstructed volume consists of 153 slices with 256×256 pixels (1.25×1.25×1.25 mm^3). The spatial resolution at the center of the field of view is approximately 2.5 mm.
The emission data were recorded in list-mode format for approximately 90 min (9×10 min frames) after MR-PET probe administration. The data acquired in each individual frame were processed and images were reconstructed after acquisition for immediate analysis. Images were also reconstructed from the data acquired 30-90 minutes post injection. Additionally, thirty 3-minute frames were generated and the tracer uptake in structures of interest as a function of time was analyzed.
The MR imaging sequence included MP-RAGE and 3D T1-weighted gradient echo scans with and without inflow saturation. The latter were used for time of flight (TOF) angiography. The field of view scanned for the 3D sequences was 85×85 mm^2, with repetition time (TR), echo time (TE), and flip angle of 32 ms, 5.78 ms and 18°, respectively. […] For the MP-RAGE, the parameters used were inversion time TI=900 ms, TR/TE=2300/4.4, NEX=1, FOV=49×49 mm^2, matrix=192×192, slice thickness=0.26 mm for resolution=0.26 mm^3.
MR images were analyzed using OsiriX (www.osirix-viewer.com) by drawing regions of interest (ROI) in the thrombus, contralateral artery and adjacent tissue and quantifying signal intensity (SI). Noise was quantified as the standard deviation (SD) of the signal measured in the air outside the animal. Contrast to noise ratios (CNR) were calculated for the difference between tissue A and tissue B using the following equation (1). CNR(tissue A/tissue B)=[SI(tissue A)−SI(tissue B)]/SD(air) (1)
Signal intensity ratios (SIR) between the thrombus (ipsilateral) and contralateral vessel were calculated using equation (2) for images pre- and 10 min post-probe administration. SIR=[SI(ipsilateral)/SI(contralateral)]post/[SI(ipsilateral)/SI(contralateral)]pre (2) […]

Substance: Gd3-EP-2104R-Cu [Compound 21]
- CNRthrombus:brain post probe (black-blood MR, 11.5 μmol/kg i.v., pre-injection −2.0±2.2, p<0.005): 13.0±2.0
- PET SIRipsi:contra (hyperintense lesion vs identical contralateral volume of interest, p<0.01): 1.85±0.48
- PET time-activity curve in thrombus: rapid and static uptake in the thrombus
- PET time-activity curve in thrombus (listed as Gd3-EP-2104R-^64Cu): activity remains approximately constant over 90 min
- Thrombus visibility on black-blood T1-weighted MR post injection: now bright indicating the presence of thrombus
- Thrombus visibility on black-blood T1-weighted MR post injection (listed as Gd3-EP-2104R-^64Cu): clearly visible
- MR SIRpost/SIRpre (thrombus vs contralateral vessel, pre and 10 min post probe, p<0.01): 1.71±0.35
